Assays:
Aβ(1-40) [1] = target: T1, Aβ(1-40) (Homo sapiens, UniProt P05067); assay: In vitro Aβ(1-40) aggregation kinetics, ThT fluorescent labeling method; type: biochemical; conditions: L-NIBC 1.0 and 10.0 ppm; 20 μM Aβ(1-40), 37° C.
T1 construct: Freeze-dried powder of amyloid polypeptide Aβ(1-40) (Invitrogen Corp.); purchased Invitrogen Corp
Text: Thioflavin T (abbreviation: ThT) is a dye specifically for dyeing amyloid fibers. […] When it encounters amyloid polypeptides or proteins with a fiber structure, it will immediately couple with the amyloid polypeptides or proteins and its fluorescence intensity will increase exponentially. Just because of this property, ThT is widely used as a marker to monitor amyloidosis of peptides or proteins. The fibrosis process of Aβ(1-40) is also a nucleation-controlled polymerization process. Therefore, the growth curve of Aβ(1-40) fiber measured by ThT fluorescent labeling method is mainly divided into three stages: Initial stage, growth stage and platform stage. […] All the Aβ(1-40) PBS solutions for the experiments were prepared freshly. […] The samples were incubated continuously in a 96-well plate at 37° C. by ThT fluorescent labeling method, and monitored the fluorescence intensity by microplate reader once every 10 minutes.

Aβ(1-40) [2] = target: T1, Aβ(1-40); assay: AFM topography of Aβ(1-40) after 48 h coincubation; type: biochemical; conditions: coincubated for 48 h
Procedure: Panel A is the AFM topography after Aβ(1-40) was incubated alone for 48 h. Panel B is an AFM topography after Aβ(1-40) was coincubated with L-NIBC for 48 h. Panel C and panel D are AFM topographies after Aβ(1-40) was coincubated with gold nanoparticles with an average particle size of 6.0 nm and 3.6 nm respectively (modified with L-NIBC) for 48 h. And […] is an AFM topography after Aβ(1-40) was coincubated with AuCs in an average particle size of 1.8 nm (modified with L-NIBC) for 48 h.

[3] = system: SH-SY5Y neuroblastoma cell line; assay: Aβ induced AD cell model, cell viability by CCK-8; type: cell-based; conditions: 20 μM Aβ(1-40), 24 h; L-NIBC 20 ppm; particles 0.01-20 ppm
Procedure: The cell viability was used as an index in the experiment of this embodiment. […] The cells used in the experiment were SH-SY5Y neuroblastoma cell line. […] Specific method:
1) SH-sy5y cells (cells had passed to the sixth generation) in logarithmic growth phase were diluted with complete medium (MEM+10% FBS+1% penicillin−streptomycin) to get a cell suspension in a density of 5×10^4/mL. The suspension was inoculated 200 μL per well into a 96-well plate, and cultivated in an incubator with 5% CO2 at 37° C. A sample was added when the cells attached to the wells.
2) 100 μL ligand-modified AuCs samples or ligand-modified gold nanoparticles samples, at different particle sizes and at concentrations of 0.04 ppm, 0.4 ppm, 4 ppm, 20 ppm, 40 ppm and 80 ppm respectively, which were dissolved by maintenance medium (MEM+2% FBS+1% penicillin-streptomycin) were added into the incubated suspension obtained from Step 1). After incubating in the incubator for 2 h, 100 μL 80 μM Aβ(1-40) was added, and then the mixture was incubated in the incubator for 24 h. […] The culture medium was removed, maintenance medium (MEM) containing 10% CCK-8 at 100 μL/well was added and was incubated for 4 h, the absorbance of each well at 450 nm was measured to reflect the prevention and treatment effects of ligand-modified AuCs on Aβ(1-40) lesion.

α-syn = target: T2, α-syn (Homo sapiens, UniProt P37840); assay: In vitro α-syn aggregation kinetics, ThT fluorescent labeling method; type: biochemical; conditions: L-NIBC 1.0 and 10.0 ppm; 35 μM α-syn, 37° C.
T2 construct: purchased Bachem Corp
Text: Thioflavin T (abbreviation: ThT) is a dye for dyeing amyloid fibers specifically. […] When it encounters amyloid polypeptide or protein with a fiber structure, it will immediately couple with the amyloid polypeptides or proteins and its fluorescence intensity will increase exponentially. For this reason, ThT is widely used as markers to monitor amyloidosis of peptides or proteins. This embodiment utilizes ThT fluorescent labeling method to monitor the kinetics process of fibrosis aggregation of α-syn with the existence of AuCs. The specific experiment method was as follows:
Pretreatment of α-syn monomers: Freeze-dried powder (Bachem Corp.) of α-syn was dissolved in HFIP to obtain a 1 g/L α-syn solution. The solution was incubated at room temperature for 2-4 h after sealing, then blowed to dry HFIP by high-purity nitrogen in a fume hood. […]
Sample preparation and detection: Ligand-modified AuCs in different concentrations listed in Table 1 were added to 35 μM α-syn PBS solutions respectively, and incubated continuously in a 96-well plate at 37° C., by ThT fluorescent labeling method, and were monitored the fluorescence intensity by microplate reader once every 10 minutes. The kinetic process of α-syn aggregation was characterized through the change of fluorescence intensity of ThT. […]

T1 sequence (P05067 672-711 limits assumed): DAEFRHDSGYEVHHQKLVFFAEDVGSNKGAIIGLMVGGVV

CC(C)C(=O)N[C@@H](CS)C(=O)O [L-NIBC, N-isobutyryl-L-cysteine]
effect on Aβ(1-40) amyloidosis kinetics (Aβ(1-40) [1]): no obvious effect | Aβ(1-40) fibers in AFM topography (Aβ(1-40) [2]): no obvious effect | effect on cell viability in Aβ-induced AD cell model [3]: did not improve cell viability | effect on kinetics of α-syn aggregation (α-syn): did not have an obvious effect
